Laboratory results from publication PMC4926125, “Evaluation of the Toxicity and Toxicokinetics of Cereulide from an Emetic Bacillus cereus Strain of Milk Origin” (Toxins, 2016).
Where two headings read alike, the source gives them in different places.

How the values were obtained:
[1] = Toxicokinetics of cereulide in rabbits after a single intravenous injection (plasma, UPLC-MS/MS); assay type: in vivo, New Zealand White rabbits; conditions: for MRT / Tmax: rabbit; for MRT: read-out: MRTlast, mean retention time until the last time point; for Tmax: read-out: Tmax, time to peak concentration
Description: A total number of eight rabbits (half female and half male) were used to evaluate the toxicokinetics of cereulide after a single administration of 5 μg cereulide. All plasma samples at different time points were collected, and the concentrations of cereulide were quantified by UPLC-MS/MS assay. The dynamic curve of cereulide in the plasma of rabbits is shown in Figure 3a, and toxicokinetic parameters were calculated using a non-compartmental model as shown in Table 1. […] The concentration of cereulide dropped down until 1 h and rose thereafter. Following a short stationary phase from 4 h to 8 h, the concentration of cereulide decreased gradually. No cereulide could be detected 32 h later. Additionally, no cereulide was detected in the rabbits treated by 0.9% saline-methanol (10:90, v/v) based on our established UPLC-MS/MS method.
(§1) This animal study was approved by the Institutional Animal Care and Use Committee at the China Agricultural University (SYXK (2012-0037), 28 December 2012), and all the operations were conducted according to the biosafety procedures. Eight adult New Zealand White rabbits (four female and four male) with weights of 2.0 ± 0.3 kg were used in this study. A single intravenous dose of 5 μg cereulide dissolved in 0.9% saline-methanol (10:90, v/v; the amount of methanol injected to rabbit was about 1.8 g/kg body weight) was administrated. Two other rabbits (one female and one male) were treated by 0.9% saline-methanol (10:90, v/v) as control. Blood samples were collected after injection at different time points 0, 0.2, 0.5, 1, 2, 3, 4, 5, 6, 8, 10, 12, 16, 20, 24, 28, 32 h. All samples were centrifuged at 4 °C, 2000 g for 10 min. Plasma from each sample was collected and stored at −80 °C.
The plasma samples were thawed to room temperature before analysis. Then 200 μL of each sample was spiked with 10 ng/mL valinomycin (Sigma-Aldrich, St. Louis, MO, USA) as internal standards in a 1.5 mL tube (Axygen, Union City, CA, USA). The extraction steps were as below. First 1 mL acetonitrile (Fisher Scientific, Waltham, PA, USA) was added to each sample and vortexed for 3 min. After centrifugation at 13,000 g for 10 min, the supernatants were transferred into new tubes. The extraction steps were repeated once and the supernatants were combined. The supernatants were evaporated under a flow of nitrogen gas at 50 °C. The dry samples were reconstituted with 500 μL methanol and water with the ratio of 9:1 (v/v), vortexed for 3 min and filtered through 0.22 μm filter membrane (PALL, Port Washington, NY, USA) before UPLC-MS/MS analysis.
The presence of cereulide was confirmed in all extracts and quantified by UPLC-MS/MS as described before. UPLC-MS/MS (Waters, Milford, MA, USA) equipped with a RP C18 column (50 mm × 2.1 mm, 1.7 μm, Acquity UPLC, Milford, MA, USA) was used. A gradient program was applied with the mobile phase consisting of solvent A (0.1% formic acid (Dikma, Lake Forest, CA, USA) in water) and solvent B (0.1% formic acid in acetonitrile) as follows: 98%–10% A (0–1 min), 10%–0% A (1–3 min), 0%–98% A (3–5 min). The flow rate was set at 0.3 mL/min with the injection volume of 10 μL. A positive electrospray ionization (ESI^+) mode was chosen to analyze the transitions of m/z 1170.9 → 1125.9 for cereulide and m/z 1128.8 → 1084.3 for valinomycin, by multiple reaction monitoring (MRM) method. The cone voltages for cereulide and valinomycin were 10 V and 60 V, and collision energy were 20 eV and 37 eV, respectively. All data were acquired and processed by software Masslynx 4.1 (Waters, Milford, MA, USA, 2005). The toxicokinetic parameters of cereulide were analyzed by the commercial pharmacokinetic program Phoenix WinNonlin 5.2.1 (Certara, Princeton, NJ, USA).

[2] = test system: aspartate aminotransferase (AST) in plasma; test: Liver damage in rabbits evaluated by plasma AST concentration (indirect EIA); assay type: in vivo, New Zealand White rabbits; conditions: mean ± SD, n = 8, control range 15.0 to 30.0 ng/mL
Description: Liver damage in rabbits triggered by cereulide was evaluated by the concentration of aspartate aminotransferase (AST) in plasma. […] Liver function recovered, with the concentration of AST returning to the normal level 32 h after administration. In addition, the concentrations of AST in female rabbits were higher than those in males (Figure 3c), especially at the time point of 0.5 h (P = 0.0345).
as §1, with “Blood samples were collected after injection at different time points 0, 0.2, 0.5, 1, 2, 3, 4, 5, 6, 8, 10, 12, 16, 20, 24, 28, 32 h. All samples were centrifuged at 4 °C, 2000 g for 10 min. Plasma from each sample was collected and stored at −80 °C.” left out
Plasma samples at time points of 0.5, 6, 12, 24 and 32 h were evaluated concentrations of AST by indirect EIA according to the instruction (Beyotime Biotechnology, Beijing, China). […] Subsequently, the substrate was added with the absorbance at 450 nm.

[3] = still active after heat treatment in food processing and passing through the intestinal tract; cited from earlier work
Description: B. cereus can be found in most common food matrices such as rice, pasta and dairy products, and it represents more than 68.0% of foodborne outbreaks in all food types. There is an increasing occurrence of B. cereus foodborne outbreaks. For example, B. cereus was responsible for 13.4% of bacterial foodborne outbreaks, ranking as the second among the most frequent bacterial causes of foodborne disease in Chinese inland provinces. In fact, the number of B. cereus contaminations is highly underestimated, because foodborne B. cereus disease is mild and self-limiting and is consequently ...

[4] = both sexes, New Zealand White, plasma, iv, 5 ug, single i.v. 5 μg cereulide/rabbit, plasma, UPLC-MS/MS, non-compartmental, n = 8, mean ± SD
[5] = both sexes, New Zealand White, plasma, iv, 5 ug, single i.v. 5 μg cereulide/rabbit, plasma, UPLC-MS/MS, non-compartmental, n = 8, median
[6] = single i.v. 5 μg cereulide/rabbit, plasma, UPLC-MS/MS (LOQ 1.5 ng/mL)
[7] = single i.v. 5 μg cereulide/rabbit, plasma, UPLC-MS/MS, non-compartmental, n = 8, median
[8] = single i.v. 5 μg cereulide/rabbit, plasma, UPLC-MS/MS, non-compartmental, n = 8, range

CC(C)C[C@H]1OC(=O)[C@H](C(C)C)NC(=O)[C@H](C(C)C)OC(=O)[C@@H](C)NC(=O)[C@@H](CC(C)C)OC(=O)[C@H](C(C)C)NC(=O)[C@H](C(C)C)OC(=O)[C@@H](C)NC(=O)[C@@H](CC(C)C)OC(=O)[C@H](C(C)C)NC(=O)[C@H](C(C)C)OC(=O)[C@@H](C)NC1=O [cereulide]
AUC(0-t) ([1]; both sexes, New Zealand White, iv, 5 ug, single i.v. 5 μg cereulide/rabbit, plasma, UPLC-MS/MS, non-compartmental, n = 8, mean ± SD, read-out: AUC, area under the curve for the plasma concentration until the last time point): 321 ± 240 ng·h/mL
AUC(0-inf) ([1]; both sexes, New Zealand White, iv, 5 ug, single i.v. 5 μg cereulide/rabbit, plasma, UPLC-MS/MS, non-compartmental, n = 8, mean ± SD, read-out: AUC∞, area under the curve until infinity): 390 ± 258 ng·h/mL
clearance ([1]; both sexes, New Zealand White, iv, 5 ug, single i.v. 5 μg cereulide/rabbit, plasma, UPLC-MS/MS, non-compartmental, n = 8, mean ± SD, read-out: Cl, clearance (converted)): 0.318 mL/min
Cmax ([1]; both sexes, New Zealand White, iv, 5 ug, single i.v. 5 μg cereulide/rabbit, plasma, UPLC-MS/MS, non-compartmental, n = 8, mean ± SD, read-out: Cmax, maximum concentration after intravenous administration): 40.8 ± 21.6 ng/mL
half-life ([1]; both sexes, New Zealand White, iv, 5 ug, single i.v. 5 μg cereulide/rabbit, plasma, UPLC-MS/MS, non-compartmental, n = 8, mean ± SD, read-out: HL_Lambda_z, elimination half-life (converted)): 10.8 ± 9.1 h
Vd ([1]; both sexes, New Zealand White, iv, 5 ug, single i.v. 5 μg cereulide/rabbit, plasma, UPLC-MS/MS, non-compartmental, n = 8, mean ± SD, read-out: Vd, volume of distribution): 0.32 ± 0.4 L
MRT [1, 4]: 9.6 ± 2.9 h
Tmax [1, 4]: 2.6 ± 3.4 h
MRT [1, 5]: 10.6 h
Tmax [1, 5]: 0.2 h
AUC, area under the curve for the plasma concentration until the last time point ([1]; single i.v. 5 μg cereulide/rabbit (ear vein), plasma 0-32 h, UPLC-MS/MS, non-compartmental model (WinNonlin), n = 8, median): 309.3 ng·h/mL
time after which no cereulide could be detected in plasma [1, 6]: 32 h
time at which cereulide was detected in plasma after injection [1, 6]: ≤ 0.2 h
Lambda_z, elimination rate constant ([1]; single i.v. 5 μg cereulide/rabbit, plasma, UPLC-MS/MS, non-compartmental, n = 8, mean ± SD): 0.1 ± 0.1 h⁻¹
AUC∞, area under the curve until infinity [1, 7]: 330.5 ng·h/mL
Cl, clearance [1, 7]: 15.5 mL/h
Cmax, maximum concentration after intravenous administration [1, 7]: 33.8 ng/mL
HL_Lambda_z, elimination half-life [1, 7]: 6.9 h
Lambda_z, elimination rate constant [1, 7]: 0.1 h⁻¹
Vd, volume of distribution [1, 7]: 208.1 mL
AUC, area under the curve for the plasma concentration until the last time point [1, 8]: 81.2 to 851.1 ng·h/mL
AUC∞, area under the curve until infinity [1, 8]: 126.0 to 853.9 ng·h/mL
Cl, clearance [1, 8]: 5.9 to 39.7 mL/h
Cmax, maximum concentration after intravenous administration [1, 8]: 13.3 to 78.1 ng/mL
HL_Lambda_z, elimination half-life [1, 8]: 1.9 to 24.5 h
Lambda_z, elimination rate constant [1, 8]: 0.03 to 0.4 h⁻¹
MRTlast, mean retention time until the last time point [1, 8]: 4.5 to 13.4 h
Tmax, time to peak concentration [1, 8]: 0.2 to 8.0 h
Vd, volume of distribution [1, 8]: 16.3 to 1254.5 mL
AST concentration in plasma ([2]; 0.5 h after single i.v. 5 μg cereulide): 99.1 ± 32.2 ng/mL
AST concentration in plasma ([2]; 12 h after single i.v. 5 μg cereulide): 97.3 ± 55.3 ng/mL
stability to heat and proteolysis [3]: heat-stable, proteolytically resistant
